Measured values from PMC6681697, “One-Step ^18F-Labeling and Preclinical Evaluation of Prostate-Specific Membrane Antigen Trifluoroborate Probes for Cancer Imaging” (Journal of Nuclear Medicine, 2019).
Like-named read-outs stand apart in the source and are kept apart here. One block for each compound: values may come before it.

Key:
[1] = Distribution coefficient (LogD7.4), shake flask method; type: physicochemical; conditions: n-octanol / phosphate buffer 0.1 M pH 7.4; n = 3
Summary of the method: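 ^18F-labeled tracer partitioned between n-octanol and 0.1 M phosphate buffer pH 7.4, vortexed 2 min, centrifuged 3,000g for 10 min. Both phases counted by γ-counter; LogD7.4 taken as log10 of octanol/buffer count ratio.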

[2] = target: T1, PSMA (Homo sapiens, UniProt Q04609); experiment: In vitro competition binding assay on LNCaP cells with ^18F-DCFPyL as radioligand
T1 construct: because it expresses PSMA endogenously and is commonly used to evaluate PSMA-targeting radiotracers; endogenous in cells; host or cells: LNCaP cells
T1 sequence (Q04609 whole entry): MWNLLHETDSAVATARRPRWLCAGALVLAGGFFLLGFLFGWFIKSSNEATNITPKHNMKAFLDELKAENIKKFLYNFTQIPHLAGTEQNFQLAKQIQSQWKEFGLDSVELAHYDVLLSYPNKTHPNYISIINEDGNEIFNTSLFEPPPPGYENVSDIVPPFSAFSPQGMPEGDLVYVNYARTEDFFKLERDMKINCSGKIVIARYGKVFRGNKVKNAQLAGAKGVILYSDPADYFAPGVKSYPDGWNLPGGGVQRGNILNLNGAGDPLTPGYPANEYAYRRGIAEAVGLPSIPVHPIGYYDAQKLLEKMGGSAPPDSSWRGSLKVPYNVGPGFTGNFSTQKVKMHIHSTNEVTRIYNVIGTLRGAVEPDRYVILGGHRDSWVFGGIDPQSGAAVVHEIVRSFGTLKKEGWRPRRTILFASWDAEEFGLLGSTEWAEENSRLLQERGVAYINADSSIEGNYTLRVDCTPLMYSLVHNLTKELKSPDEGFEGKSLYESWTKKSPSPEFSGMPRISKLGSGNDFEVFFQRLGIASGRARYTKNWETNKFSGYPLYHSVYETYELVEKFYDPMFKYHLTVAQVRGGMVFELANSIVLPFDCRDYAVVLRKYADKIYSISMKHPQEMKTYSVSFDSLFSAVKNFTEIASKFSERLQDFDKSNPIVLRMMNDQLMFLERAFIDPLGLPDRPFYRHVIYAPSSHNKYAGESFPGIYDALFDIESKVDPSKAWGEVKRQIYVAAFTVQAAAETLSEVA
Summary of the method: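 Ki values derive from one-site competition fits of γ-counted, cell-associated radioactivity. Cells were washed cold, then harvested by trypsin.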

[3] = system: LNCaP xenografts; experiment: Ex vivo biodistribution and blocking studies in mice bearing LNCaP xenografts; conditions: for tumor uptake: LNCaP tumor
Summary of the method: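 Male NODSCID IL2RγKO mice carried subcutaneous LNCaP tumours (1 × 10^7 cells, 5–8 mm) and received 1–3 MBq radiotracer, unblocked or blocked. Organs and blood taken at 60 min were weighed and γ-counted, giving %ID/g; blocked and unblocked groups were compared by multiple t tests.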

[4] = system: LNCaP xenografts; experiment: PET/CT imaging of LNCaP tumor-bearing mice; type: in vivo; conditions: 1 h after injection
Experimental: Imaging and biodistribution experiments were performed using NODSCID IL2RγKO male mice. All experiments were conducted according to the guidelines established by the Canadian Council on Animal Care and approved by the Animal Ethics Committee of the University of British Columbia. Mice were anesthetized by inhalation with 2% isoflurane in oxygen and implanted subcutaneously with 1 × 10^7 LNCaP cells behind the left shoulder. The mice were imaged or used in biodistribution studies once the tumor reached 5–8 mm in diameter (5–6 wk).
PET imaging experiments were conducted using an Inveon preclinical PET/CT scanner (Siemens). Compounds ^18F-1,2,3,5,7, and 8 were formulated in 10% ethanol/normal saline, whereas ^18F-4 and 6 were formulated in 10% ethanol/phosphate-buffered saline. […] For blocking controls, the mice were coinjected with DCFPyL (0.5 mg). After injection, the mice were allowed to recover and roam freely in their cage. After 50 min, the mice were sedated by 2% isoflurane inhalation and positioned in the scanner. A CT scan was performed first for localization and attenuation correction. This was followed by a 10-min static PET scan. The mice were kept warm by a heating pad during image acquisition. […]

[5] = 1 h after injection, 1-way ANOVA, Dunnett test
[6] = 1 h blocked (coinjection of DCFPyL 0.5 mg)

LogD7.4 [1]: most lipophilic compound of the series
logD at 2 min [1]: -2.28 ± 0.01
Ki [2]: 1.9 ± 0.68 nM
T/B (tumor-to-blood ratio) ([3]; 1 h after injection, unblocked): 19.80 ± 7.23
T/K (tumor-to-kidney ratio) ([3]; 1 h after injection, unblocked): 0.14 ± 0.02
T/M (tumor-to-muscle ratio) ([3]; 1 h after injection, unblocked): 72.20 ± 13.46
adrenal uptake ([3]; 1 h after injection, unblocked): 2.14 ± 0.61 %ID/g
blood uptake ([3]; 1 h after injection, unblocked): 0.68 ± 0.26 %ID/g
bone uptake ([3]; 1 h after injection, unblocked): 0.56 ± 0.14 %ID/g
brain uptake ([3]; 1 h after injection, unblocked): 0.03 ± 0.01 %ID/g
fat uptake ([3]; 1 h after injection, unblocked): 0.38 ± 0.14 %ID/g
heart uptake ([3]; 1 h after injection, unblocked): 0.22 ± 0.03 %ID/g
intestine uptake ([3]; 1 h after injection, unblocked): 23.05 ± 4.39 %ID/g
kidney uptake ([3]; 1 h after injection, unblocked): 83.22 ± 6.07 %ID/g
liver uptake ([3]; 1 h after injection, unblocked): 0.98 ± 0.22 %ID/g
lung uptake ([3]; 1 h after injection, unblocked): 1.05 ± 0.14 %ID/g
muscle uptake ([3]; 1 h after injection, unblocked): 0.17 ± 0.02 %ID/g
pancreas uptake ([3]; 1 h after injection, unblocked): 0.26 ± 0.06 %ID/g
spleen uptake ([3]; 1 h after injection, unblocked): 1.77 ± 0.70 %ID/g
stomach uptake ([3]; 1 h after injection, unblocked): 1.17 ± 1.35 %ID/g
testes uptake ([3]; 1 h after injection, unblocked): 0.33 ± 0.05 %ID/g
tumor uptake compared with ^18F-DCFPyL [3, 5]: No statistically significant differences
T/B (tumor-to-blood ratio) [3, 6]: 0.72 ± 0.43
T/K (tumor-to-kidney ratio) [3, 6]: 0.29 ± 0.07
T/M (tumor-to-muscle ratio) [3, 6]: 3.78 ± 0.17
adrenal uptake [3, 6]: 0.20 ± 0.04 %ID/g
blood uptake [3, 6]: 1.64 ± 2.58 %ID/g
bone uptake [3, 6]: 0.57 ± 0.37 %ID/g
brain uptake [3, 6]: 0.03 ± 0.03 %ID/g
fat uptake [3, 6]: 0.06 ± 0.02 %ID/g
heart uptake [3, 6]: 0.17 ± 0.07 %ID/g
intestine uptake [3, 6]: 24.50 ± 4.86 %ID/g
kidney uptake [3, 6]: 1.30 ± 0.25 %ID/g
liver uptake [3, 6]: 0.87 ± 0.17 %ID/g
lung uptake [3, 6]: 0.43 ± 0.23 %ID/g
muscle uptake [3, 6]: 0.10 ± 0.02 %ID/g
pancreas uptake [3, 6]: 0.16 ± 0.14 %ID/g
spleen uptake [3, 6]: 0.18 ± 0.10 %ID/g
stomach uptake [3, 6]: 0.88 ± 0.41 %ID/g
testes uptake [3, 6]: 0.14 ± 0.04 %ID/g
tumor uptake ([3]; 1 h after injection, unblocked, listed as 6): 11.9 ± 2.3 %ID/g
tumor uptake ([3]; 1 h after injection, unblocked, listed as [18F]6): 11.94 ± 2.29 %ID/g
tumor uptake [3, 6]: 0.37 ± 0.10 %ID/g
SMILES: O=C(O)CC[C@H](NC(=O)N[C@@H](CCCCNC(=O)[C@H](Cc1ccc2ccccc2c1)NC(=O)[C@H]1CC[C@H](CNC(=O)Cn2cc(C[n+]3ccc([B-](F)(F)F)cc3)nn2)CC1)C(=O)O)C(=O)O [^18F-6]
intestinal activity compared with ^18F-DCFPyL ([3]; 1 h after injection): significantly higher intestinal activity than ^18F-DCFPyL

logD at 2 min [1]: -3.24 ± 0.03
Ki [2]: 16.5 ± 5.5 nM
T/B (tumor-to-blood ratio) ([3]; 1 h after injection, unblocked): 54.57 ± 38.49
T/K (tumor-to-kidney ratio) ([3]; 1 h after injection, unblocked): 0.28 ± 0.22
T/M (tumor-to-muscle ratio) ([3]; 1 h after injection, unblocked): 117.13 ± 52.06
adrenal uptake ([3]; 1 h after injection, unblocked): 0.81 ± 0.25 %ID/g
blood uptake ([3]; 1 h after injection, unblocked): 0.13 ± 0.08 %ID/g
bone uptake ([3]; 1 h after injection, unblocked): 0.10 ± 0.07 %ID/g
brain uptake ([3]; 1 h after injection, unblocked): 0.01 ± 0.01 %ID/g
fat uptake ([3]; 1 h after injection, unblocked): 0.27 ± 0.14 %ID/g
heart uptake ([3]; 1 h after injection, unblocked): 0.07 ± 0.02 %ID/g
intestine uptake ([3]; 1 h after injection, unblocked): 22.24 ± 2.79 %ID/g
kidney uptake ([3]; 1 h after injection, unblocked): 20.35 ± 9.85 %ID/g
liver uptake ([3]; 1 h after injection, unblocked): 0.83 ± 0.34 %ID/g
lung uptake ([3]; 1 h after injection, unblocked): 0.40 ± 0.13 %ID/g
muscle uptake ([3]; 1 h after injection, unblocked): 0.05 ± 0.01 %ID/g
pancreas uptake ([3]; 1 h after injection, unblocked): 0.13 ± 0.11 %ID/g
spleen uptake ([3]; 1 h after injection, unblocked): 0.75 ± 0.36 %ID/g
stomach uptake ([3]; 1 h after injection, unblocked): 0.21 ± 0.12 %ID/g
testes uptake ([3]; 1 h after injection, unblocked): 0.18 ± 0.05 %ID/g
kidney accumulation compared with ^18F-DCFPyL [3, 5]: lower kidney accumulation
tumor uptake compared with ^18F-DCFPyL [3, 5]: lower tumor uptake than ^18F-DCFPyL
tumor-to-blood and tumor-to-muscle ratios compared with ^18F-DCFPyL [3, 5]: higher ratios
T/B (tumor-to-blood ratio) [3, 6]: 1.56 ± 0.87
T/K (tumor-to-kidney ratio) [3, 6]: 0.28 ± 0.12
T/M (tumor-to-muscle ratio) [3, 6]: 3.62 ± 3.62
adrenal uptake [3, 6]: 0.06 ± 0.09 %ID/g
blood uptake [3, 6]: 0.85 ± 1.37 %ID/g
bone uptake [3, 6]: 0.16 ± 0.25 %ID/g
brain uptake [3, 6]: 0.01 ± 0.01 %ID/g
fat uptake [3, 6]: 0.02 ± 0.02 %ID/g
heart uptake [3, 6]: 0.04 ± 0.01 %ID/g
intestine uptake [3, 6]: 26.68 ± 9.98 %ID/g
kidney uptake [3, 6]: 0.56 ± 0.18 %ID/g
liver uptake [3, 6]: 0.73 ± 0.21 %ID/g
lung uptake [3, 6]: 0.12 ± 0.04 %ID/g
muscle uptake [3, 6]: 0.24 ± 0.37 %ID/g
pancreas uptake [3, 6]: 0.06 ± 0.06 %ID/g
spleen uptake [3, 6]: 0.15 ± 0.16 %ID/g
stomach uptake [3, 6]: 1.55 ± 2.10 %ID/g
testes uptake [3, 6]: 0.04 ± 0.01 %ID/g
tumor uptake ([3]; 1 h after injection, unblocked, listed as 7): 5.1 ± 1.1 %ID/g
tumor uptake ([3]; 1 h after injection, unblocked, listed as [18F]7): 5.09 ± 1.10 %ID/g
tumor uptake [3, 6]: 0.15 ± 0.06 %ID/g
SMILES: C[N+](C)(Cc1cn(CC(=O)NCCOCCOCCC(=O)N[C@@H](Cc2ccc3ccccc3c2)C(=O)NCCCC[C@H](NC(=O)N[C@@H](CCC(=O)O)C(=O)O)C(=O)O)nn1)C[B-](F)(F)F [^18F-7]

SMILES: C[N+](C)(Cc1cn(CC(=O)N[C@@H](CCC(=O)O)C(=O)NCCCC[C@H](NC(=O)[C@H](CCC(=O)O)NC(=O)Cn2cc(C[N+](C)(C)C[B-](F)(F)F)nn2)C(=O)NC[C@H]2CC[C@H](C(=O)N[C@@H](Cc3ccc4ccccc4c3)C(=O)NCCCC[C@H](NC(=O)N[C@@H](CCC(=O)O)C(=O)O)C(=O)O)CC2)nn1)C[B-](F)(F)F [^18F-8]
accumulation in the liver ([4]; PET/CT): no significant accumulation in the liver
clearance / excretion pathway ([4]; imaging and biodistribution): no hepatobiliary excretion
LogD7.4 [1]: −3.58 ± 0.36
Ki ([2]; LNCaP cells, 0.1 nM ^18F-DCFPyL radioligand, 1 h at 37°C, n = 3): 0.22 ± 0.01 nM
T/B (tumor-to-blood ratio) ([3]; 1 h after injection, unblocked): 30.95 ± 7.76
T/K (tumor-to-kidney ratio) ([3]; 1 h after injection, unblocked): 0.14 ± 0.07
T/M (tumor-to-muscle ratio) ([3]; 1 h after injection, unblocked): 67.23 ± 25.93
adrenal uptake ([3]; 1 h after injection, unblocked): 7.72 ± 2.70 %ID/g
blood uptake ([3]; 1 h after injection, unblocked): 0.56 ± 0.11 %ID/g
bone uptake ([3]; 1 h after injection, unblocked): 0.25 ± 0.10 %ID/g
brain uptake ([3]; 1 h after injection, unblocked): 0.02 ± 0.00 %ID/g
fat uptake ([3]; 1 h after injection, unblocked): 0.80 ± 0.28 %ID/g
heart uptake ([3]; 1 h after injection, unblocked): 0.28 ± 0.07 %ID/g
intestine uptake ([3]; 1 h after injection, unblocked): 0.32 ± 0.06 %ID/g
kidney uptake ([3]; 1 h after injection, unblocked): 143.85 ± 61.73 %ID/g
liver uptake ([3]; 1 h after injection, unblocked): 0.20 ± 0.05 %ID/g
lung uptake ([3]; 1 h after injection, unblocked): 1.97 ± 0.34 %ID/g
muscle uptake ([3]; 1 h after injection, unblocked): 0.27 ± 0.06 %ID/g
pancreas uptake ([3]; 1 h after injection, unblocked): 0.46 ± 0.15 %ID/g
spleen uptake ([3]; 1 h after injection, unblocked): 6.47 ± 2.17 %ID/g
stomach uptake ([3]; 1 h after injection, unblocked): 0.11 ± 0.03 %ID/g
testes uptake ([3]; 1 h after injection, unblocked): 0.57 ± 0.12 %ID/g
tumor uptake compared with ^18F-DCFPyL [3, 5]: higher uptake
T/B (tumor-to-blood ratio) [3, 6]: 0.92 ± 0.24
T/K (tumor-to-kidney ratio) [3, 6]: 0.17 ± 0.04
T/M (tumor-to-muscle ratio) [3, 6]: 3.07 ± 0.92
adrenal uptake [3, 6]: 0.14 ± 0.03 %ID/g
blood uptake [3, 6]: 0.39 ± 0.07 %ID/g
bone uptake [3, 6]: 0.15 ± 0.02 %ID/g
brain uptake [3, 6]: 0.01 ± 0.00 %ID/g
fat uptake [3, 6]: 0.06 ± 0.02 %ID/g
heart uptake [3, 6]: 0.13 ± 0.01 %ID/g
intestine uptake [3, 6]: 0.26 ± 0.05 %ID/g
kidney uptake [3, 6]: 2.19 ± 0.44 %ID/g
liver uptake [3, 6]: 0.16 ± 0.04 %ID/g
lung uptake [3, 6]: 0.33 ± 0.06 %ID/g
muscle uptake [3, 6]: 0.13 ± 0.06 %ID/g
pancreas uptake [3, 6]: 0.09 ± 0.03 %ID/g
spleen uptake [3, 6]: 0.12 ± 0.04 %ID/g
stomach uptake [3, 6]: 0.09 ± 0.04 %ID/g
testes uptake [3, 6]: 0.18 ± 0.09 %ID/g
tumor uptake ([3]; 1 h after injection, unblocked, listed as 8): 16.7 ± 2.7 %ID/g
tumor uptake ([3]; 1 h after injection, unblocked, listed as [18F]8): 16.66 ± 2.74 %ID/g
tumor uptake [3, 6]: 0.35 ± 0.03 %ID/g
